Assay results taken from patent US12649751B2 (Arcus Biosciences, Inc., priority 2022, dated 2026).
Read-outs that look alike come from different tables or passages of the source.

Assays:
[1] = biological target: HPK1 (Homo sapiens, UniProt Q92918); test: HPK1 Biochemical Assay (ADP-Glo luminescence; low ATP 10 μM or high ATP 200 μM)
[2] = tested on: p-SLP-76 (Ser376) in Jurkat cells; test: pSLP76 Cellular Assay (AlphaLISA SureFire Ultra p-SLP-76 (Ser376), anti-CD3 activated Jurkat cells); type: cell-based; settings: Homo sapiens, read-out: Cellular Potency
Protocol: pSLP76 cellular assay was performed using Jurkat cells and the AlphaLISA SureFire Ultra p-SLP-76 (Ser376) Assay Kit (PerkinElmer). Dose-response assays were performed in Greiner® Low Volume 384-well assay plates containing 200 nL of 22 serial 2-fold compound dilutions using Bravo and Echo. Jurkat cells were grown in RPMI-1640 supplemented with 10% FBS and PSG. The day prior to the assay, the cells were collected, and serum starved overnight in Opti-MEM. The day of the assay, the cells were collected and resuspended in HBSS. 100,000 cells/well were added to the compound plates and after a short spin, the plates were incubated at 37° C. for 1 h. The cells were activated by adding 10 μL of 0.025 mg/ml anti-CD3. Plates were then incubated at 37° C. for 45 min. Stimulation was terminated by adding […], followed by a brief centrifugation and 60 min of shaking at 300 rpm. Cell lysates (10 μL) were transferred to 384-well White Opti-plates and the samples were processed according to the manufacturer's directions. The fluorescence signal from pSLP76 was measured at 570 nm using Envision plate reader. IC50 values were determined by fitting the data to a standard 4-parameter logistic equation. The results are summarized in the Cellular Potency columns in Tables 4 and 5 below (Cellular Potency).

[3] = HPK1 ADP-Glo assay, high ATP (200 μM ATP, 5 nM HPK1), read-out: Biochemical Potency (high ATP)
[4] = pSLP76 (Ser376) AlphaLISA, anti-CD3 activated Jurkat cells
[5] = 2 nM HPK1, 10 μM ATP, read-out: Biochemical Potency (low ATP)
[6] = Jurkat cells, anti-CD3 stimulation, pSLP76

Sequence of HPK1 (Q92918 whole entry, species assumed): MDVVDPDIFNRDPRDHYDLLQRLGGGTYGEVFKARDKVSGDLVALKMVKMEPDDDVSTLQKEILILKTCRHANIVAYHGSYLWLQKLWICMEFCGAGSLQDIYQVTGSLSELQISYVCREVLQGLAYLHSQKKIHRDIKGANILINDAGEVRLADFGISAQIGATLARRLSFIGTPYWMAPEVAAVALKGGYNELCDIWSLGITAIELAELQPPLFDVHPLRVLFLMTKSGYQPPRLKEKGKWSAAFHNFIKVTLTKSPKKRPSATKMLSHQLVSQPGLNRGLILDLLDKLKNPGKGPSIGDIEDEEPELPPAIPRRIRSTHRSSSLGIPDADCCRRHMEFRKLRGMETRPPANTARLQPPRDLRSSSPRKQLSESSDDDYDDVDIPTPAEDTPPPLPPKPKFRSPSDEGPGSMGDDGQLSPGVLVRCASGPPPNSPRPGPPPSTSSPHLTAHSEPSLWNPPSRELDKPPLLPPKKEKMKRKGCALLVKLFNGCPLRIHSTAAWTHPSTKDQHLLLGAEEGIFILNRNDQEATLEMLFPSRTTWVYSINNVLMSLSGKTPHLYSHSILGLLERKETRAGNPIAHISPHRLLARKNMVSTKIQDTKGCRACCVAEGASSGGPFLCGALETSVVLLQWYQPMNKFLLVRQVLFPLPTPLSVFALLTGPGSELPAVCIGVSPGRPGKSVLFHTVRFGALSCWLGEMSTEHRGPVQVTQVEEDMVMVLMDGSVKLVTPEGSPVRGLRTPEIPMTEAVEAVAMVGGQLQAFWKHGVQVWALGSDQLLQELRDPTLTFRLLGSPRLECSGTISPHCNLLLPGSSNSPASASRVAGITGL

| Compound | IC50 [1, 3] [nM] | IC50 [2, 4] [nM] | IC50 [1, 5] [nM] | IC50 [2, 6] [nM] | IC50 ([1]; 5 nM HPK1, 200 μM ATP, read-out: Biochemical Potency (high ATP)) [nM] |
| --- | --- | --- | --- | --- | --- |
| Cc1cc(-c2nc3cc(Nc4ccc(C5CCOCC5)c(CN[C@H]5CCOC5)n4)ncc3s2)ccn1 [Example 221, N-[2-(2-Methylpyridin-4-yl)-[1,3]thiazolo[5,4-c]pyridin-6-yl]-5-(oxan-4-yl)-6-({[(3S)-oxolan-3-yl]amino}methyl)pyridin-2-amine] | – | – | < 100 | 100 to 1000 | – |
| C[C@H]1COCCN1c1nc2cc(Nc3ccc(C4CCOCC4)c(CN4CCCC4)n3)ncc2s1 [Example 235, N-{2-[(3S)-3-Methylmorpholin-4-yl]-[1,3]thiazolo[5,4-c]pyridin-6-yl}-5-(oxan-4-yl)-6-[(pyrrolidin-1-yl)methyl]pyridin-2-amine] | – | – | < 100 | 1000 to 5000 | – |
| c1cncc(-c2nc3cc(Nc4ccc(C5CCOC5)c(CN5CCCC5)n4)ncc3s2)c1 (stereo not shown) [Example 254, 5-(Oxolan-3-yl)-N-[2-(pyridin-3-yl)-[1,3]thiazolo[5,4-c]pyridin-6-yl]-6-[(pyrrolidin-1-yl)methyl]pyridin-2-amine] | – | – | < 100 | 100 to 1000 | – |
| c1cncc(-c2nc3cc(Nc4ccc([C@H]5CCOC5)c(CN5CCCC5)n4)ncc3s2)c1 (single isomer, unassigned) [Example 260, 5-[(3R or 3S)—Oxolan-3-yl]-N-[2-(pyridin-3-yl)-[1,3]thiazolo[5,4-c]pyridin-6-yl]-6-[(pyrrolidin-1-yl)methyl]pyridin-2-amine] | – | – | < 100 | 100 to 1000 | – |
| Cc1cccnc1-c1nc2cc(Nc3ccc(C4CCOCC4)c(CN4CCCC4)n3)ncc2s1 [Example 212, N-[2-(3-Methylpyridin-2-yl)-[1,3]thiazolo[5,4-c]pyridin-6-yl]-5-(oxan-4-yl)-6-[(pyrrolidin-1-yl)methyl]pyridin-2-amine] | – | – | < 100 | < 100 | – |
| CN(C)Cc1nc(Nc2cccc(F)c2-c2nc3cc(Cl)ncc3s2)ccc1N1CCOCC1 [Example 19, N-(2-{6-Chloro-[1,3]thiazolo[5,4-c]pyridin-2-yl}-3-fluorophenyl)-6-[(dimethylamino)methyl]-5-(morpholin-4-yl)pyridin-2-amine] | – | – | > 5000 | > 5000 | – |
| Cc1ccc(Nc2cc3nc(-c4ncccc4C)sc3cn2)nc1CN1CC[C@H](F)C1 [Example 43, 6-{[(3S)-3-Fluoropyrrolidin-1-yl]methyl}-5-methyl-N-[2-(3-methylpyridin-2-yl)-[1,3]thiazolo[5,4-c]pyridin-6-yl]pyridin-2-amine] | – | – | < 100 | > 5000 | – |
| CC(=O)N1CCC(N2C[C@@H]3C[C@H]2CN3c2nc(C)cc(Nc3cc4nc(-c5cccc(C(=O)N(C)C)c5)sc4cn3)n2)CC1 [Example 332] | < 100 | 1000 to 5000 | – | – | – |
| Cc1ccc(Nc2cc3nc(-c4ccnn4C)sc3cn2)nc1O[C@H]1CCNC1 [Example 182, 5-Methyl-N-[2-(1-methyl-1H-pyrazol-5-yl)-[1,3]thiazolo[5,4-c]pyridin-6-yl]-6-[(3S)-pyrrolidin-3-yloxy]pyridin-2-amine] | – | – | < 100 | 100 to 1000 | – |
| CCN1C[C@@H]2C[C@H]1CN2c1nc(C)cc(Nc2cc3nc(-c4cnn(Cc5ccccc5)c4)sc3cn2)n1 [Example 336] | < 100 | 100 to 1000 | – | – | – |
| Cc1ccnn1-c1nc2cc(Nc3cccc(N4C[C@@H]5C[C@H]4CN5C)n3)ncc2s1 [Example 205, N-[2-(5-Methyl-1H-pyrazol-1-yl)-[1,3]thiazolo[5,4-c]pyridin-6-yl]-6-[(1S,4S)-5-methyl-2,5-diazabicyclo[2.2.1]heptan-2-yl]pyridin-2-amine] | – | – | < 100 | 100 to 1000 | < 100 |
| CN1C[C@@H]2C[C@H]1CN2c1nccc(Nc2cc3nc(-c4cccc(S(=O)(=O)N(C)C)c4)sc3cn2)n1 [Example 289, N,N-dimethyl-3-[6-({2-[(1S,4S)-5-methyl-2,5-diazabicyclo[2.2.1]heptan-2-yl]pyrimidin-4-yl}amino)-[1,3]thiazolo[5,4-c]pyridin-2-yl]benzene-1-sulfonamide] | – | – | < 100 | 100 to 1000 | – |
| Cc1c(N)cncc1-c1nc2cc(Nc3ccc(N4CCOCC4)c(CN(C)C)n3)ncc2s1 [Example 29, N-[2-(5-Amino-4-methylpyridin-3-yl)-[1,3]thiazolo[5,4-c]pyridin-6-yl]-6-[(dimethylamino)methyl]-5-(morpholin-4-yl)pyridin-2-amine] | – | – | < 100 | 100 to 1000 | – |
| COc1cccc(F)c1-c1nc2cc(Nc3cccc(N4CC5CCC4CN5C)n3)ncc2s1 (stereo not shown) [Example 79, N-[2-(2-Fluoro-6-methoxyphenyl)-[1,3]thiazolo[5,4-c]pyridin-6-yl]-6-{5-methyl-2,5-diazabicyclo[2.2.2]octan-2-yl}pyridin-2-amine] | – | – | < 100 | 1000 to 5000 | – |
| Cc1cccnc1-c1nc2cc(Nc3ccc(C)c(N4C[C@H](N)C[C@H]4CO)n3)ncc2s1 [Example 69, [(2S,4R)-4-Amino-1-(3-methyl-6-{[2-(3-methylpyridin-2-yl)-[1,3]thiazolo[5,4-c]pyridin-6-yl]amino}pyridin-2-yl)pyrrolidin-2-yl]methanol] | – | – | < 100 | > 5000 | – |
| CN1C[C@@H]2C[C@H]1CN2c1cccc(Nc2cc3nc(-c4cncc(S(C)(=O)=O)c4)sc3cn2)n1 [Example 131, N-[2-(5-Methanesulfonylpyridin-3-yl)-[1,3]thiazolo[5,4-c]pyridin-6-yl]-6-[(1S,4S)-5-methyl-2,5-diazabicyclo[2.2.1]heptan-2-yl]pyridin-2-amine] | – | – | < 100 | 1000 to 5000 | – |

Results, then the compound that gave them:

| IC50 [1, 3] [nM] | IC50 [2, 4] [nM] | IC50 [1, 5] [nM] | IC50 [2, 6] [nM] | IC50 ([1]; 5 nM HPK1, 200 μM ATP, read-out: Biochemical Potency (high ATP)) [nM] | Compound |
| --- | --- | --- | --- | --- | --- |
| < 100 | < 100 | – | – | – | Cc1cc(Nc2cc3nc(-c4cnn(CC5CC5)c4)sc3cn2)nc(N2C[C@@H]3C[C@H]2CN3CCO)n1 [Example 370] |
| < 100 | 1000 to 5000 | – | – | – | Cc1cc(Nc2cc3nc(-c4cnn5c4CCCC5)sc3cn2)nc(N2C[C@@H]3C[C@H]2CN3C)n1 [Example 379] |
| < 100 | < 100 | – | – | – | CCN1C[C@@H]2C[C@H]1CN2c1nc(C)cc(Nc2cc3nc(-c4cccc(C(=O)N5CCC(F)CC5)c4)sc3cn2)n1 [Example 538] |
| < 100 | 100 to 1000 | – | – | – | Cc1cc(Nc2cc3nc(-c4cccc(C(=O)N(C)C)c4)sc3cn2)nc(N2C[C@@H]3C[C@H]2CN3Cc2cccnc2)n1 [Example 497] |
| 100 to 1000 | 100 to 1000 | – | – | – | Cc1cc(Nc2cc3nc(-c4cccc(CC(=O)N(C)C)c4)sc3cn2)nc(N2C[C@@H]3C[C@H]2CN3C)n1 [Example 395] |
| < 100 | 1000 to 5000 | – | – | – | CCN1C[C@@H]2C[C@H]1CN2c1nc(C)cc(Nc2cc3nc(-c4cccc(N5CCC(F)CC5)c4)sc3cn2)n1 [Example 338] |
| 100 to 1000 | 1000 to 5000 | – | – | – | Cc1cc(Nc2cc3nc(-c4cccc(C(=O)N(C)C)c4)sc3cn2)nc(N2C[C@@H]3C[C@H]2CN3CCN(C)S(C)(=O)=O)n1 [Example 498] |
| < 100 | 1000 to 5000 | – | – | – | Cc1cc(Nc2cc3nc(-c4cccc(C5CCOCC5)c4)sc3cn2)nc(N2C[C@@H]3C[C@H]2CN3C)n1 [Example 404] |
| < 100 | < 100 | – | – | – | CCN(CC)C(=O)c1cccc(-c2nc3cc(Nc4cc(C)nc(N5C[C@@H]6C[C@H]5CN6CCO)n4)ncc3s2)c1 [Example 504] |
| < 100 | 100 to 1000 | – | – | – | Cc1cc(Nc2cc3nc(-c4cnn(CCO)c4)sc3cn2)nc(N2C[C@@H]3C[C@H]2CN3C)n1 [Example 381] |
| < 100 | < 100 | – | – | – | CCn1cc(-c2nc3cc(Nc4cc(C)nc(N5C[C@@H]6C[C@H]5CN6CCO)n4)ncc3s2)cn1 [Example 358] |
| < 100 | 100 to 1000 | – | – | – | Cc1cc(Nc2cc3nc(-c4cccc(-c5ncccc5C(C)C)c4)sc3cn2)nc(N2C[C@@H]3C[C@H]2CN3C)n1 [Example 585] |
| < 100 | 100 to 1000 | – | – | – | CCN1C[C@@H]2C[C@H]1CN2c1nc(C)cc(Nc2cc3nc(-c4cncc(OCC5CC5)c4)sc3cn2)n1 [Example 422] |
| < 100 | 1000 to 5000 | – | – | – | Cc1cc(Nc2cc3nc(-c4cnn5ccccc45)sc3cn2)nc(N2C[C@@H]3C[C@H]2CN3C)n1 [Example 386] |
| < 100 | 100 to 1000 | – | – | – | Cc1cccnc1-c1nc2cc(Nc3cc(C4CCC(O)CC4)nc(N4C[C@@H]5C[C@H]4CN5C)n3)ncc2s1 (stereo partly shown) [Example 507] |
| < 100 | < 100 | – | – | – | CCN1C[C@@H]2C[C@H]1CN2c1nc(C)cc(Nc2cc3nc(-c4ccnc(N5CCOC[C@H]5C(C)C)c4)sc3cn2)n1 [Example 474] |
| < 100 | 100 to 1000 | – | – | – | Cc1cc(Nc2cc3nc(-c4cccc(-c5ncccc5C)c4)sc3cn2)nc(N2C[C@@H]3C[C@H]2CN3C)n1 [Example 586] |
